US9816104B2, “Compositions and methods for deploying a transgenic refuge as a seed blend” (priority 2000, dated 2017)

Tested on: western and northern corn rootworm
Assay: Field trial, corn rootworm damage by Iowa class and synergy test, Example 3
Assay type: in vivo
Description: A field trial was established and completed in accordance with pertinent protocols and in conformance with USDA notification requirements. The purpose of the trial was to determine the efficacy of transgenic event Cry3Bb.11231 in corn seed in combination with corn rootworm seed treatments using imidacloprid.
For each growing site that was selected, the plot design included the following:
The following seed treatment combinations were used for each growing area:
All seed treatments with pesticides were carried out as described in Example 1. In seed treatment number 1 and 2, Gaucho® was used for wire worm protection, but at levels sufficiently low that it would be expected to have no effect on corn rootworms (i.e., at a treatment level of about 60 gm of active/100 kg seed or 0.16 mg active/kernel), otherwise, seed receiving treatment number 2 had only transgenic event Cry3Bb.11231 and no pesticide treatment that would be expected to be effective against corn rootworm.
For seeds having treatments numbered 3 through 5, the pesticides were applied by the methods described in Example 1. For seeds having treatment numbers 6 and 7, commercially available Force® 3G and Lorsban® 15G were applied to the soil in a 5″ band at the time of sowing. The levels of application are as shown and are within the ranges recommended for standard commercial practice.
Corn seeds to be tested were planted and grown at four different locations across several Midwestern states in the United States corn belt according to the protocol described above.
The determination of damage by corn root worm was made according to the protocol described in Example 2.
Cry3Bb.11231 transgenic event was tested for possible synergy at a level of rootworm damage of 3-6. In the first test, shown in Table 2, the percentage of test plants having damage levels of from 3 to 6, on the Iowa 1-6 Scale, was determined for the control and for seeds treated with the pesticide at two levels, and for seeds having the transgenic event, alone and in combination. The following formula was then used to calculate a “synergy threshold”: (% of control Cry3Bb.11231)*(% of control imidacloprid treatment)/100.
This threshold was compared against the percent of control for the treatment combination (i.e., Cry3Bb.11231 with imidacloprid @ 400 gm/100 kg). If the treatment combination percent of control was below the threshold, then it was concluded that there was synergy.
It was believed that the measurement of rootworm damage at higher damage levels (i.e., levels 3-6) is a useful indicator that correlates with subsequent yield loss due to such damage. The reason for this is that rootworm damage at levels 1 and 2 seldom causes corn plants to fall over and lodge, and such minimal root loss is not believed to reduce the number or weight of kernels per ear. However, root damage at levels of 3 and above increasingly causes lodging and loss of yield. Therefore, it is believed that the summed damage levels of 3-6 (and in some cases, 4-6 and 5 and 6), provides a useful indication of the effect of corn rootworm damage on subsequent corn yield.

O=[N+]([O-])NC1=NCCN1Cc1ccc(Cl)nc1 [Imidacloprid, 1-[(6-chloro-3-pyridinyl)methol]-N-nitro-2-imidazolidinimime]
effectiveness against corn rootworm damage (imidacloprid at 400 gm/100 kg of seed): effective against corn rootworm damage
CORN ROOTWORM DAMAGE IN EACH IOWA CLASS (IOWA 1-6 SCALE) 1 (number of plants in Iowa class 1, imidacloprid at 400 g/100 kg seed): 3
CORN ROOTWORM DAMAGE IN EACH IOWA CLASS (IOWA 1-6 SCALE) 2 (number of plants in Iowa class 2, imidacloprid at 400 g/100 kg seed): 15
CORN ROOTWORM DAMAGE IN EACH IOWA CLASS (IOWA 1-6 SCALE) 3 (number of plants in Iowa class 3, imidacloprid at 400 g/100 kg seed): 36
CORN ROOTWORM DAMAGE IN EACH IOWA CLASS (IOWA 1-6 SCALE) 4 (number of plants in Iowa class 4, imidacloprid at 400 g/100 kg seed): 21
CORN ROOTWORM DAMAGE IN EACH IOWA CLASS (IOWA 1-6 SCALE) 5 (number of plants in Iowa class 5, imidacloprid at 400 g/100 kg seed): 5
CORN ROOTWORM DAMAGE IN EACH IOWA CLASS (IOWA 1-6 SCALE) 6 (number of plants in Iowa class 6, imidacloprid at 400 g/100 kg seed): 0
